The values below come from US20030176465A1, “Cyclic amino acid derivatives” (priority 2000, published 2003).

SMILES strings stand for the structures. Structures can show the parent of a compound that is named as a salt.

One data set deals with factor Xa, human (Homo sapiens, UniProt P00742). As to the kind of experiment: Inhibition of factor Xa (IC50, headed 'Affinity to Receptors'). Format: biochemical. An excerpt: The inhibition of factor Xa by the compounds according to the invention and the measurement of the anticoagulant and antithrombotic activity can be determined by conventional in-vitro or in-vivo methods. A suitable method is described, for example, by J. Hauptmann et al. in Thrombosis and Haemostasis 1990, 63, 220-223.
The inhibition of factor Xa can be measured, for example, by the method of T. Hara et al. in Thromb. Haemostas. 1994, 71, 314-319.

The next data set concerns the target TF/VIIa (Homo sapiens, UniProt P08709). As to the kind of experiment: Inhibition of TF/VIIa (IC50, headed 'Affinity to Receptors'). Format: biochemical. An excerpt:
The inhibition of factor VIIa by the compounds according to the invention and the measurement of the anticoagulant and antithrombotic activity can be determined by conventional in-vitro or in-vivo methods. A conventional method for the measurement of the inhibition of factor VIIa is described, for example, by H. F. Ronning et al. in Thrombosis Research 1996, 84, 73-81.

factor Xa, human, sequence (P00742 235-488 limits assumed): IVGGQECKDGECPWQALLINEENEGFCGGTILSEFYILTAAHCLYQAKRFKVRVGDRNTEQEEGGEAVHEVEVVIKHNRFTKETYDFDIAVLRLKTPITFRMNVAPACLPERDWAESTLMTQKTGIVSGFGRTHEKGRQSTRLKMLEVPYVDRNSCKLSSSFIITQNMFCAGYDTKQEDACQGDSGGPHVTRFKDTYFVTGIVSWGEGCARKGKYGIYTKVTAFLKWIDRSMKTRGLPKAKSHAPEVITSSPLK
factor Xa, human, sequence (P00742 41-179 limits assumed): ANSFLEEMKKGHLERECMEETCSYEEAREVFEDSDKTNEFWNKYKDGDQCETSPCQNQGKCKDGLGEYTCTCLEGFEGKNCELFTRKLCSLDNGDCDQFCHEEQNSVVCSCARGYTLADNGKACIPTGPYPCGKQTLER
TF/VIIa, sequence (P08709 213-466 limits assumed): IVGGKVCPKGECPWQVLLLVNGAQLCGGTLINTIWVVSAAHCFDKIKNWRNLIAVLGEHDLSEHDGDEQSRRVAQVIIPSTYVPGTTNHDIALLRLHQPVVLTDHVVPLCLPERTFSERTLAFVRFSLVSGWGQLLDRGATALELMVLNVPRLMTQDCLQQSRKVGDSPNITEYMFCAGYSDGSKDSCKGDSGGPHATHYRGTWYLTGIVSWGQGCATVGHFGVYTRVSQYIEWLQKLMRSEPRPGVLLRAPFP
TF/VIIa, sequence (P08709 61-212 limits assumed): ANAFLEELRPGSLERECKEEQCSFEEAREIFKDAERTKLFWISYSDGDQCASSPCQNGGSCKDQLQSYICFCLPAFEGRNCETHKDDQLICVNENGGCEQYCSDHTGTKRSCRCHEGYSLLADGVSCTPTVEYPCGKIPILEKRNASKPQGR
TF/VIIa, sequence (P13726 33-295 partner): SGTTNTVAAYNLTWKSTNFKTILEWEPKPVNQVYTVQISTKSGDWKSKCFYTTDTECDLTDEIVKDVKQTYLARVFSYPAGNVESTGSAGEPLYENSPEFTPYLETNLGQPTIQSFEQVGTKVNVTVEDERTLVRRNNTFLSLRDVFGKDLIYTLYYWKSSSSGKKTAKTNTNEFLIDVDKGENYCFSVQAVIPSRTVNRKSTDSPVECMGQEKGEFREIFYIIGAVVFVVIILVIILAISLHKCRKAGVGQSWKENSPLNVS

As to `Nc1nc(F)c(F)c(N2CCC[C@H]2C(=O)Nc2ccc(-c3ccccc3S(N)(=O)=O)cc2)c1F` (as salt: trifluoroacetate) [AF, N-(2′-sulfamoylbiphenyl-4-yl)-(2S)-1-(2-amino-3,5,6-trifluoropyridin-4-yl)pyrrolidine-2-carboxamide, trifluoroacetate], the melting point is 180 °C (dec.).

As to `NC(=NO)c1cccc(N2CCCCC2C(=O)Nc2ccc(-c3ccccc3S(N)(=O)=O)cc2)c1` [DA, N-(2′-sulfamoylbiphenyl-4-yl)-(2R,S)-1-[3-(N-hydroxyamidino)phenyl]piperidine-2-carboxamide], the melting point is 98 °C (dec.). The IC50 on factor Xa, human was 340 nM. This compound also yielded an IC50 against TF/VIIa of 440 nM.
